Results: US20130138221A1, “METHODS AND COMPOSITIONS FOR IMPROVING IMPLANT OSSEOINTEGRATION” (Novartis AG, priority 2010, published 2013)

Tests used:
bone resorption = details: zoledronic acid versus etidronate; reference 22; cited from earlier work
[1] = tested on: estrogen-deprived (OVX) Wistar rats with titanium screw implant in the left tibia; test: biomechanical removal torque testing of titanium screw implants in tibia of ovariectomized rats; format: in vivo, rat; details: 4 weeks post-implantation, implant coated with 8.5 μg zoledronate and/or Antibody 1 100 mg/kg iv. weekly, FIG. 2
Description: Titanium screw type implants (3 mm length, 1-1.5 mm diameter, self-cutting) were prepared by either (1) sand blasting and acid etching with no further coating, or (2) sand blasted and acid etched, then coated with 8.5 μg zoledronate. The coating was carried out by warming the implants and then dip coating with a zolendronate stearate salt and then allowing to dry at 80° C. as described for alendronic acid coating in reference 36. The […] and drying cycle was carried out 3 times. Skeletally mature virgin Wistar rats (6.5-month-old, Harlan laboratories, Switzerland) were estrogen-deprived by ovariectomy (OVX) under narcosis. Bone mineral density loss was confirmed in the proximal tibia metaphysis (4.5 mm distal from proximal end) three months post-ovariectomy (compared to intact controls) by peripheral quantitative computed tomography as described previously. The titanium screws were implanted approximately 3 mm distal to the proximal end of the left tibia under narcosis. Animals received a sand-blasted acid edged titanium implant with or without zoledronic acid coating which were prepared as above. Animals were distributed into the following groups [n=16/group and time point]: 1. OVX group receiving control implant 2. […] Intact group receiving control implant Animals were sacrificed 2 and 4 weeks post-implantation. […]

In the case of `O=P(O)(O)C(O)(Cn1ccnc1)P(=O)(O)O` [zoledronic acid, 1-hydroxy-2-(imidazol-1-yl)ethane-1,1-diphosphonic acid], the “potency relative to etidronate” value (bone resorption) is given as 10,000 times.

B1: Antibody 1: anti-sclerostin antibody with VH domain SEQ ID NO: 1 and VL domain SEQ ID NO: 2, disclosed in WO09047356 (antibody, V domains shown)
VH: QVQLVESGGGLVQPGGSLRLSCAASGFTFRSHWLSWVRQAPGKGLEWVSNINYDGSSTYYADSVKGRFTISRDNSKNTLYLQMNSLRAEDTAVYYCARDTYLHFDYWGQGTLVTVSS
VL: DIALTQPASVSGSPGQSITISCTGTSSDVGDINDVSWYQQHPGKAPKLMIYDVNNRPSGVSNRFSGSKSGNTASLTISGLQAEDEADYYCQSYAGSYLSEVFGGGTKLTVLGQ
modifications: Antibody Vh; Antibody Vl
With B1 the “increase in removal torque versus OVX control implant (group 1)” value [1] was 32%.
